Laboratory results reported in patent US5276058A, “3,4-dihydroxychalcone derivatives” (Nippon Hypox Laboratories Incorporated, priority 1993, dated 1994).

Legend:
[1] = JP,A 63-297847; cited from earlier work
[2] = system: enzymes which are to cause inflammation; details: in vitro; PROSTAGLADINSS (1985, 30 (3) 357); cited from earlier work
[3] = Food Chemistry (1983, 12) 205-212; cited from earlier work
[4] = JP,A 61-76433; cited from earlier work
[5] = system: ear swelling induced by arachidonic acid; experiment: topical anti-inflammatory activity test (arachidonic acid-induced ear swelling); assay type: in vivo, male ICR mice; details: Mus musculus, 1 hour before 1 mg arachidonic acid, read-out: Ratio of inhibition of ear swelling induced by arachidonic acid; for inhibition in vivo at 30 µg/ear: 30 μg/ear; for inhibition in vivo at 10 µg/ear: 10 μg/ear; for inhibition in vivo at 100 µg/ear: 100 μg/ear
Method: The 3,4-dihydroxychalcone derivatives shown in Table 9, as test compounds, were subjected to the following topical anti-inflammatory activity test.
Acetone solutions were prepared from the test compounds. Then, the acetone solution were applied to the right ears of male ICR mice such that the dose of each test compound was 10 μg/ear, 30 μg/ear of 100 μg/ear. One hour after the application, 1 mg of arachidonic acid was applied to each right ear to cause ear swelling.
One hour after the application of the arachidonic acid, the mice were sacrificed by vertebral cervical dislocation, and the right and left ears were taken and separately weighed. The weight of the right ear to which the arachidonic acid had been applied was divided by the weight of the non-treated left ear to obtain a swelling ratio.
The effect of each test compound was shown in the following manner. The relative values of the swelling ratios of individual mice were calculated on an assumption that the average value of the swelling ratios of the solvent control group was taken as 100, and amounts of their decreases were expressed by percentages (inhibition ratios).

5-lipoxygenase = molecular target: T1, 5-lipoxygenase (Rattus norvegicus, UniProt P12527); experiment: 5-lipoxygenase inhibiting activity test (RBL-1 cell homogenate); assay type: biochemical; details: pH 7.4, 37° C., 5-HETE formation
T1 construct: endogenous in cells; host or cells: RBL-1 cell homogenate
T1 sequence (P12527 1-673): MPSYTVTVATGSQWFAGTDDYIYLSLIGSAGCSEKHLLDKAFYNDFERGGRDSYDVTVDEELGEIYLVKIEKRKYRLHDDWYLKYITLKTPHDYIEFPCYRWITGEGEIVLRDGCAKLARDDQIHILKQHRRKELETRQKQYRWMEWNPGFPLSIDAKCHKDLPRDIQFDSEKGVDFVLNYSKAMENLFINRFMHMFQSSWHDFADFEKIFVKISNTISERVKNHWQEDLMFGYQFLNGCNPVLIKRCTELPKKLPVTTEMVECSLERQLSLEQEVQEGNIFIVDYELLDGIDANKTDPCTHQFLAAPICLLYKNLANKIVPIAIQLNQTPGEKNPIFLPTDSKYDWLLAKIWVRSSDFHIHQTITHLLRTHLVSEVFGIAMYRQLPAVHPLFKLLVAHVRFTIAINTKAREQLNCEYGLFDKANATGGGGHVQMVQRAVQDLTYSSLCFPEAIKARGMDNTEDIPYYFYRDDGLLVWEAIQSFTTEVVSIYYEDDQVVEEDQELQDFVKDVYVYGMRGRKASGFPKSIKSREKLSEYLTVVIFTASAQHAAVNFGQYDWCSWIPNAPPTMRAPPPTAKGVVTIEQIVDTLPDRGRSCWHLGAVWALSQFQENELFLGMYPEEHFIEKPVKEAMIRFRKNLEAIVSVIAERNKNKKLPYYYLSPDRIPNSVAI
Method: RBL-1 cell homogenate was suspended in a 50 mM phosphoric acid buffer solution (pH 7.4) containing 2 mM of CaCl2, 0.25 mM of sucrose, 1 mM of EDTA-2Na and glutathione, and the mixture was heated to 37° C. Arachidonic acid was added to the mixture to form 5-HETE (5-hydroxyeicosatetraenonic acid), and the 5-HETE was measured for an amount by a high-performance liquid chromatography.
The 3,4-dihydroxychalcone derivatives shown in Table 11 were selected as test compounds. The 5-lipoxygenase inhibiting activity of each test compound was evaluated as follows. Each test compound was independently added to the above phosphoric acid buffer solution, and the 5-HETE amount was measured in the same manner as above. The inhibition ratio of each test compound was determined in comparison with that of the control group, and the value of IC50 was calculated by a conventional method.

cyclooxygenase = molecular target: T2, cyclooxygenase (Ovis aries, UniProt P05979); experiment: cyclooxygenase inhibiting activity test; assay type: biochemical; details: sheep seminal vesicle, pH 7.4, prostaglandin E2 formation
T2 construct: containing sheep seminal vesicle; from tissue; host or cells: sheep seminal vesicle
T2 sequence (P05979 25-600): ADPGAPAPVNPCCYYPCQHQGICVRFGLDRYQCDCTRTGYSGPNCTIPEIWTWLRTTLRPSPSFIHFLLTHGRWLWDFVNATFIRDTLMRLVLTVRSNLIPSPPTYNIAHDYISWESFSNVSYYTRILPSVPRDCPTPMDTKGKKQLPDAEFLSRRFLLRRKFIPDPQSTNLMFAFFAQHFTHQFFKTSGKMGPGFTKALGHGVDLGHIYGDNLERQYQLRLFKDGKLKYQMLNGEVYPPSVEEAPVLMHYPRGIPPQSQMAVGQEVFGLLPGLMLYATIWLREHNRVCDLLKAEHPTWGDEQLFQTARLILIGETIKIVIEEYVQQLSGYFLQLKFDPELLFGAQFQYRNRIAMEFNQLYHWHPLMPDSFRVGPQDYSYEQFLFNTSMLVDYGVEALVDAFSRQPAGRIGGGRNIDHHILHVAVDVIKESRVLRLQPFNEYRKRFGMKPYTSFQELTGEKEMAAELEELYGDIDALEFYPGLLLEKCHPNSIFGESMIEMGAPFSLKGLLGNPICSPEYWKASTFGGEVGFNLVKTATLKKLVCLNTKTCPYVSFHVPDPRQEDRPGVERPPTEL
Method: A 50 mM phosphoric acid buffer solution (pH 7.4) containing sheep seminal vesicle, 2 mM of glutathione, 0.6 mM of epinephrine and 80 μM of EDTA-2Na preheated at 37° C. for 2 minutes, and then ^14 C-arachidonic acid was added to the reaction mixture. The mixture was heated for 10 minutes to form prostaglandin E2, and the radiation activity of the formed prostaglandin E2 was taken as cyclooxygenase activity. The 3,4-dihydroxychalcone derivatives shown in Table 10 were selected as test compounds. The cyclooxygenase inhibiting activity of each test compound was evaluated as follows. Each test compound was independently added to the above phosphoric acid buffer solution, and the radiation activity of the formed prostaglandin E2 was measured in the same manner as above. The inhibition ratio of each test compound was determined in comparison with that of the control group, and the value of IC50 was calculated by a conventional method.

Row | SMILES | IC50 (cyclooxygenase) [µM] | inhibition in vivo at 30 µg/ear [5] [%] | further results
1 | O=C(/C=C/c1ccc(O)c(O)c1)c1cccc(O)c1O [2',3',3,4-tetrahydroxychalcone] | – | – | anti-inflammatory activity [1]: extensive anti-inflammatory activity
2 | O=C(/C=C/c1ccc(O)c(O)c1)c1ccccc1O [2',3,4-trihydroxychalcone] | – | – | inhibiting activity against enzymes which are to cause inflammation [2]: inhibiting activity against enzymes which are to cause inflammation
3 | O=C(/C=C/c1ccc(O)c(O)c1)c1ccc(O)cc1O [2',4',3,4-tetrahydroxychalcone] | – | – | inhibiting activity against enzymes which are to cause inflammation [2]: inhibiting activity against enzymes which are to cause inflammation
4 | O=C(/C=C/c1ccc(O)c(O)c1)c1ccccc1 [3,4-dihydroxychalcone] | – | – | activity to inhibit the oxidation of edible oils [3]: activity to inhibit the oxidation of edible oils; inhibiting activity against enzymes which are to cause inflammation [2]: inhibiting activity against enzymes which are to cause inflammation
5 | COc1ccc(C(=O)C=Cc2ccc(O)c(O)c2)c(OC)c1OC [3-(3,4-dihydroxyphenyl)-1-(2,3,4-trimethoxyphenyl)-2-propen-1-one] | – | – | antiallergic activity [4]: antiallergic activity
6 | O=C(/C=C/c1ccc(O)c(O)c1)c1ccc(O)cc1 [4',3,4-trihydroxychalcone] | – | – | inhibiting activity against enzymes which are to cause inflammation [2]: inhibiting activity against enzymes which are to cause inflammation
7 | COc1ccc(OC)c(C(=O)/C=C/c2ccc(O)c(O)c2)c1 [Example 1, 2',5'-dimethoxy-3,4-dihydroxychalcone] | 17.1 | 77 | IC50 (5-lipoxygenase): 0.0078 µM
8 | COc1ccc(C(=O)C=Cc2ccc(O)c(O)c2)c(OC)c1 [Example 2] | 156 | 56 | –
9 | Cc1ccc(O)c(C(=O)C=Cc2ccc(O)c(O)c2)c1 [Example 5] | 121 | 52 | inhibition in vivo at 10 µg/ear [5]: 31%
10 | COc1ccc(O)c(C(=O)C=Cc2ccc(O)c(O)c2)c1 [Example 6] | 41.3 | 38 | inhibition in vivo at 10 µg/ear [5]: 7.6%; inhibition in vivo at 100 µg/ear [5]: 43%
11 | CC(C)c1ccc(O)c(C(=O)C=Cc2ccc(O)c(O)c2)c1 [Example 7] | 37.3 | 9 | –
12 | CC(C)Oc1ccc(O)c(C(=O)C=Cc2ccc(O)c(O)c2)c1 [Example 8] | – | 67 | –
13 | CCCCOc1ccc(O)c(C(=O)C=Cc2ccc(O)c(O)c2)c1 [Example 9] | – | 31 | –
14 | COc1cccc(OC)c1C(=O)C=Cc1ccc(O)c(O)c1 [Example 12] | – | 8 | –
15 | COc1ccc(OC(C)C)cc1C(=O)C=Cc1ccc(O)c(O)c1 [Example 14] | 59.9 | 33 | –
16 | CCOc1ccc(OC)cc1C(=O)C=Cc1ccc(O)c(O)c1 [Example 15] | 3.2 | 7.4 | –
17 | CCOc1ccc(OCC)c(C(=O)C=Cc2ccc(O)c(O)c2)c1 [Example 16] | 24.4 | – | inhibition in vivo at 10 µg/ear [5]: 7%
18 | Cc1ccc(C(=O)C=Cc2ccc(O)c(O)c2)cc1 [Example 18] | 210 | 27 | –
19 | COc1ccccc1C(=O)C=Cc1ccc(O)c(O)c1 [Example 19] | 35.3 | 42 | –
20 | CC(C)Oc1ccc(C(=O)C=Cc2ccc(O)c(O)c2)cc1 [Example 22] | – | 5 | –
21 | Cc1ccc(C(=O)C=Cc2ccc(O)c(O)c2)c(C)c1 [Example 25] | 40.5 | 43 | –
22 | COc1cc(C(=O)C=Cc2ccc(O)c(O)c2)ccc1O [Example 28] | – | 47 | –
23 | COc1cc(C(=O)C=Cc2ccc(O)c(O)c2)cc(OC)c1OC [Example 30] | – | 65 | –

Now from value to compound, other results behind:

Row | IC50 (cyclooxygenase) [µM] | SMILES | inhibition in vivo at 30 µg/ear [5] [%] | further results
24 | 169 | O=C(C=Cc1ccc(O)c(O)c1)c1cc(O)ccc1O [Example 3] | 39 | –
25 | 64.8 | COc1ccc(C(=O)C=Cc2ccc(O)c(O)c2)c(O)c1 [Example 4] | 35 | –
26 | 129 | CCOc1ccc(O)c(C(=O)C=Cc2ccc(O)c(O)c2)c1 [Example 10] | 43 | –
27 | 29.7 | COc1ccc(C)cc1C(=O)C=Cc1ccc(O)c(O)c1 [Example 11] | 32 | –
28 | 26 | CCOc1ccc(OC)c(C(=O)C=Cc2ccc(O)c(O)c2)c1 [Example 13] | 13 | –
29 | 71 | Cc1cccc(C(=O)C=Cc2ccc(O)c(O)c2)c1 [Example 17] | 28 | inhibition in vivo at 100 µg/ear [5]: 38%
30 | 15.1 | COc1cccc(C(=O)C=Cc2ccc(O)c(O)c2)c1 [Example 20] | 58 | –
31 | 488 | COc1ccc(C(=O)C=Cc2ccc(O)c(O)c2)cc1 [Example 21] | – | inhibition in vivo at 10 µg/ear [5]: 45%
32 | 40.6 | CN(C)c1cccc(C(=O)C=Cc2ccc(O)c(O)c2)c1 [Example 23] | 19 | –
33 | 808 | CN(C)c1ccc(C(=O)C=Cc2ccc(O)c(O)c2)cc1 [Example 24] | 21 | –
34 | 43.7 | Cc1ccc(C)c(C(=O)C=Cc2ccc(O)c(O)c2)c1 [Example 26] | 58 | –
35 | 275 | Cc1cc(C)c(C(=O)C=Cc2ccc(O)c(O)c2)c(C)c1 [Example 27] | 47 | –
36 | 829 | COc1ccc(C(=O)C=Cc2ccc(O)c(O)c2)cc1OC [Example 29] | 38 | –
